Assay results: patent US20210127675A1, “METHOD FOR C[…]-TYPE MULTIDRUG RESISTANT PLANT DISEASES” (priority 2017, published 2021)

Experiments:
[1] = test system: grapes gray mold fungus (Botrytis cinerea); experiment: Control test against efflux type multidrug resistant grapes gray mold fungus (growth in PDB, absorbance at 600 nm); format: cell-based; settings: for EC50 value ratio 1: EC50 against resistant strain 1 / EC50 against wild-type strain; for EC50 value ratio 2: EC50 against resistant strain 2 / EC50 against wild-type strain; for EC50 value ratio 3: EC50 against resistant strain 3 / EC50 against wild-type strain; for EC50 value, Efflux type multidrug resistant fungus strain 1: strain 1: ABC transporter-overexpressing (Bc-56, NITE BP-02676); for EC50 value, Efflux type multidrug resistant fungus strain 1 / EC50 value, Efflux type multidrug resistant fungus strain 2 / EC50 value, Efflux type multidrug resistant fungus strain 3 / EC50 value, Wild-type fungus strain: 18° C., 2 days; for EC50 value, Efflux type multidrug resistant fungus strain 2: strain 2: MFS transporter-overexpressing (Bc-107, NITE BP-02678); for EC50 value, Efflux type multidrug resistant fungus strain 3: strain 3: ABC transporter and MFS transporter-overexpressing (Bc-103, NITE BP-02677)
Protocol: (§1) Efficacy=100×(X−Y)/X “Equation 1” • X: Degree of growth of fungus in non-treated group • Y: Degree of growth of fungus in treated group
(§2) EC50 value ratio=EC50 value against efflux type multidrug resistant fungus strain/EC50 value against wild-type fungus strain “Equation 2”
Control Test Against Efflux Type Multidrug Resistant Grapes Gray Mold Fungus (Botrytis cinerea)
Each of the present compound (1), fludioxonil and tolnaftrate was diluted with dimethyl sulfoxide to a prescribed concentration thereof, respectively. Each of the chemical solutions comprising the respective testing compound was dispensed into a titer plate (with 96 wells) in the amount of 1 μL. Thereto was then dispensed 150 μL of a potato dextrose broth (PDB culture media) to which each conidia of grapes gray mold fungi, that is, efflux type multidrug resistant fungus strains (specifically, efflux type multidrug resistant fungus strain 1: ABC transporter-overexpressing fungus strain (fungus strain name: NITE accession number (NITE BP-02676), in-house management codes (Bc-56)); efflux type multidrug resistant fungus strain 2: MFS transporter-overexpressing fungus strain (fungus strain name: NITE accession number (NITE BP-02678), in-house management codes (Bc-107)); and efflux type multidrug resistant fungus strain 3: ABC transporter and MFS transporter-overexpressing fungus strain (fungus strain name: NITE accession number (NITE BP-02677), in-house management codes (Bc-103))) or wild-type fungus strain, respectively, was inoculated in advance. The plate was cultured at 18° C. for 2 days, thereby allowing each grapes gray mold fungus to undergo proliferation, and the absorbance at 600 nm of each well of the titer plate was then measured to determine a degree of growth of each of the grapes gray mold fungi (treated group). On the other hand, each of the groups where the wild-type fungus strain or the efflux type multidrug resistant grapes gray mold fungus strains was grown except that the chemical solution was replaced with dimethyl sulfoxide were made non-treated group, respectively, and then the degree of the growth thereof was examined (non-treated group).
The efficacy was calculated from the degree of the growth by the below-mentioned “Equation 1”, and then each EC50 value of the testing compound, respectively against the efflux type multidrug resistant fungus strains and the wild-type fungus strain was calculated. Also, an EC50 value ratio was calculated by the above-mentioned “Equation 2”.

[2] = test system: wheat Septoria leaf blotch fungus (Zymoseptoria tritici); experiment: Control test against efflux type multidrug resistant wheat Septoria leaf blotch fungus (growth in PDB, absorbance at 600 nm); format: cell-based; settings: for EC50 value ratio: EC50 against efflux type multidrug resistant strain / EC50 against wild-type strain; for EC50 value, Efflux type multidrug resistant fungus strain: efflux type multidrug resistant fungus strain St 106-6; for EC50 value, Efflux type multidrug resistant fungus strain / EC50 value, Wild-type fungus strain: 18° C., 4 days
Protocol: Control test against Efflux type multidrug resistant wheat Septoria leaf blotch fungus (Zymoseptoria tritici)
Each of the present compound (1) and tolnaftrate was diluted with dimethyl sulfoxide to a prescribed concentration thereof, respectively. Each of the chemical solutions comprising the respective testing compound was dispensed into a titer plate (with 96 wells) in the amount of 1 μL. Thereto was then dispensed 150 μL of a potato dextrose broth (PDB culture media) to which each conidia of wheat Septoria leaf blotch fungus (efflux type multidrug resistant fungus strains) (fungus strain name: St 106-6 as in-house management codes) or wild-type fungus strain, respectively, was inoculated in advance. The plate was cultured at 18° C. for 4 days, thereby allowing each wheat Septoria leaf blotch fungus to undergo proliferation, and the absorbance at 600 nm of each well of the titer plate was then measured to determine a degree of growth of the wheat Septoria leaf blotch fungus (treated group). On the other hand, each of the groups where the wild-type fungus strain or the efflux type multidrug resistant wheat Septoria leaf blotch fungus strain was grown except that the chemical solution was replaced with dimethyl sulfoxide were made non-treated group, respectively, and then the degree of growth thereof was examined (non-treated group).
The efficacy was calculated from the degree of the growth by the below-mentioned “Equation 1”, and then each […] value of the testing compound, respectively against the efflux type multidrug resistant fungus strains and the wild-type fungus strain was calculated. Next, as shown in the below-mentioned “Equation 2”, an EC50 value ratio was calculated by dividing an EC50 value against the efflux type multidrug resistant fungus strains by an EC50 value against the wild-type fungus strain.
as §1, §2

Structure (SMILES)	EC50 value ratio 1 [1]	EC50 value ratio 2 [1]	EC50 value ratio 3 [1]	EC50 value, Efflux type multidrug resistant fungus strain 1 [1]	EC50 value, Efflux type multidrug resistant fungus strain 2 [1]	EC50 value, Efflux type multidrug resistant fungus strain 3 [1]	EC50 value, Wild-type fungus strain [1]	EC50 value ratio [2]	EC50 value, Efflux type multidrug resistant fungus strain [2]	EC50 value, Wild-type fungus strain [2]	EC50 value ratio 1 ([1]; listed as tolnaftate)	EC50 value ratio 2 ([1]; listed as tolnaftate)	EC50 value ratio 3 ([1]; listed as tolnaftate)	EC50 value ratio ([2]; listed as tolnaftate)
N#Cc1c[nH]cc1-c1cccc2c1OC(F)(F)O2 [Fludioxonil]	23	14	43	0.19 ppm	0.12 ppm	0.36 ppm	0.0085 ppm							
Cc1nn(C)c(Nc2c(F)cccc2Cl)c1-c1ccc(F)cc1Br [Present compound (1)]	1.7	1.6	1.1	0.11 ppm	0.11 ppm	0.072 ppm	0.067 ppm	1.1	0.052 ppm	0.048 ppm				
Cc1cccc(N(C)C(=S)Oc2ccc3ccccc3c2)c1 [Tolnaftate]	>4.5	>4.5	>4.5	>10 ppm	>10 ppm	>10 ppm	2.2 ppm	>19	>10 ppm	0.51 ppm	more than 4.5	more than 4.5	more than 4.5	19
